Data as given in patent US7115593B2 (priority 2000, dated 2006).

System: Phytophthora infestans
Assay: whole plant or invertebrate
Format: in vivo
Conditions: Phytophthora infestans, in Solanum lycopersicum, 72 h, read-out: Efficacy in %, single active compound, application rate 0.1 g/ha; tomato, protective, evaluation 3 days after inoculation

Going from `CC(C)OC(=O)NC(C(=O)NC(C)c1nc2ccc(F)cc2s1)C(C)C` (stereo not shown) [compound of the formula (I), isopropyl 1-({[1-(6-fluoro-1,3-benzothiazol-2-yl)ethyl]-amino}carbonyl)-2-methylpropylcarbamate] to `Cc1noc(C)c1S(=O)(=O)n1c(Cl)nc2cc3c(cc21)OC(F)(F)O3` [compound of the formula (XXVII), 1-(3,5-dimethyl-isoxazol-4-sulphonyl)-2-chloro-6,6-difluoro-[1,3]-dioxolo-[4,5f]-benzimidazole], the pest or weed control at 0.1 g/ha falls from 47% to 30%.

Same assay, conditions: Phytophthora infestans, in Solanum lycopersicum, 72 h, read-out: Efficacy in %, single active compound, application rate 1 g/ha; tomato, protective, evaluation 3 days after inoculation

Going from `CC(C)OC(=O)NC(C(=O)NC(C)c1nc2ccc(F)cc2s1)C(C)C` (stereo not shown) [compound of the formula (I), isopropyl 1-({[1-(6-fluoro-1,3-benzothiazol-2-yl)ethyl]-amino}carbonyl)-2-methylpropylcarbamate] to `CO/N=C(/C(=O)OC)c1ccccc1CO/N=C(\C)c1cccc(C(F)(F)F)c1` [compound of the formula (XIII) (12), trifloxystrobin], the pest or weed control at 1 g/ha falls from 47% to 0%.

Going from `CO/C=C(/C(=O)OC)c1ccccc1Oc1cc(Oc2ccccc2C#N)ncn1` [compound of the formula (XII) (11), azoxystrobin] to `CO/N=C(/C1=NOCCO1)c1ccccc1Oc1ncnc(Oc2ccccc2Cl)c1F` [compound of the formula (XIV) (13)], the pest or weed control at 1 g/ha falls from 55% to 8%.

Same assay, conditions: Phytophthora infestans, in Solanum lycopersicum, 72 h, read-out: Efficacy in %, single active compound, application rate 10 g/ha; tomato, protective, evaluation 3 days after inoculation

Going from `CC(C)(C)C(O)C(Oc1ccc(-c2ccccc2)cc1)n1cncn1` (stereo not shown) [bitertanol (IIc), 1-(4-phenyl-phenoxy)-3,3-dimethyl-1-(1,2,4-triazol-1-yl)-butan-2-ol] to `CC(C)(C)C(O)C(Oc1ccc(Cl)cc1)n1cncn1` (stereo not shown) [triadimenol (IIb), 1-(4-chloro-phenoxy)-3,3-dimethyl-1-(1,2,4-triazol-1-yl)-butan-2-ol], the pest or weed control at 10 g/ha falls from 4% to 0%.

Going from `CCC1(C(=O)NC(C)c2ccc(Cl)cc2)C(C)C1(Cl)Cl` (stereo not shown) [carpropamid (V), N-[1-(4-chloro-phenyl)-ethyl]-2,2-dichloro-1-ethyl-3-methyl-cyclopropane-carboxamide] to `CC(C)(C)C(O)(CCc1ccc(Cl)cc1)Cn1cncn1` (stereo not shown) [tebuconazole (III), tebuconazole], the pest or weed control at 10 g/ha rises from 0% to 5%.

Going from `OC(Cc1ccccc1Cl)(Cn1nc[nH]c1=S)C1(Cl)CC1` (stereo not shown) [compound of the formula (XXI) (20)] to `O=[N+]([O-])/N=C1\NCCN1Cc1ccc(Cl)nc1` [imidacloprid (XXII), 1-[(6-chloro-3-pyridinyl)-methyl]-N-nitro-2-imidazolidinimine], the pest or weed control at 10 g/ha falls from 2% to 0%.

First: CC1(C(=O)Nc2ccc(O)c(Cl)c2Cl)CCCCC1 [fenhexamid (VIII), fenhexamid]
Second: O=[N+]([O-])c1cc(C(F)(F)F)c(Cl)c([N+](=O)[O-])c1Nc1ncc(C(F)(F)F)cc1Cl [fluazinam (XXXI), fluazinam]
The pest or weed control at 10 g/ha of the first is lower: 13% for the first, 56% for the second.

Same assay, conditions: Phytophthora infestans, in Solanum lycopersicum, 72 h, read-out: Efficacy in %, single active compound, application rate 20 g/ha; tomato, protective, evaluation 3 days after inoculation

First: N#Cc1c(Cl)c(Cl)c(Cl)c(C#N)c1Cl [chlorothalonil (XXIX), chlorothalonil]
Second: O=C1c2ccccc2C(=O)N1SC(Cl)(Cl)Cl [folpet (XIX), folpet]
The pest or weed control at 20 g/ha of the first is higher: 12% for the first, 0% for the second.

Same assay, conditions: single active compound, application rate 10 g/ha; tomato, protective, evaluation 3 days after inoculation

`CCCN(CC)CC1COC2(CCC(C(C)(C)C)CC2)O1` (stereo not shown) [spiroxamine (XI), 8-t-butyl-2-(N-ethyl-N-n-propyl-amino)-methyl-1,4-dioxaspiro[5,4]-decane] was tested, and the Efficacy in % was 0%.

Same assay, conditions: single active compound, application rate 20 g/ha; tomato, protective, evaluation 3 days after inoculation

Compared with `CN(C)S(=O)(=O)N(SC(F)(Cl)Cl)c1ccccc1` [dichlofluanid (IVa), dichlofluanid], `Cc1ccc(N(SC(F)(Cl)Cl)S(=O)(=O)N(C)C)cc1` [tolylfluanid (IVb), tolylfluanid] is higher in Efficacy in %: 5% for the first, 21% for the second.

Going from mancozeb [mancozeb (VIIc)] to “zinc propylene-1,2-bis-(dithiocarbamidate) [propineb (VI)]”, the Efficacy in % falls from 28% to 19%.

Same assay, conditions: single active compound, application rate 50 g/ha; tomato, protective, evaluation 3 days after inoculation

With `[Cl-].[Cu+2].[Cu+2].[OH-].[OH-].[OH-]` [compound of the formula (XXXXVIa) (40), copper oxychloride] the Efficacy in % was 0%.
